Measured values: patent US11548889B2, “Emetine auristatin compounds” (Arizona Board of Regents on behalf of Arizona State …, priority 2019, dated 2023)
Counter-ions that a name gives are not always drawn. Like-named read-outs stand apart in the source and are kept apart here.

How the values were obtained:
SF-268 (CNS) = assay: Human cancer cell growth inhibition, sulforhodamine B assay (NCI); format: cell-based
Experimental: (§1) Cancer Cell Line Procedures. Human cancer cell growth inhibition was measured using the standard sulforhodamine B assay of the U.S. National Cancer Institute, as previously described.^12 Briefly, cells in a 5% fetal bovine serum/RPMI1640 medium were inoculated in 96-well plates and incubated for 24 h. That was followed by serial dilutions of the compounds added. Forty-eight hours later the plates were fixed with trichloroacetic acid, stained with sulforhodamine B, and read with an automated microplate reader.

Human Cancer Cell Lines = assay: Human cancer cell growth inhibition, summary over the six cell line panel; format: cell-based; conditions: for decrease in biological activity compared to both emetine and Compound 5: in four cell lines; for biological activity (cancer cell growth inhibition): six cell line panel
Experimental: as §1
(§2) Next, growth inhibition of 50% (GI50 or the drug concentration causing a 50% reduction in the net protein increase) was calculated from optical density data with Immunosoft® software.

NCI-H460 (lung) = assay: Human cancer cell growth inhibition, sulforhodamine B assay (NCI); format: cell-based
Experimental: as §1, §2

KM20L2 (colon) = assay: as above; format: cell-based
Experimental: as §1, §2

MCF-7 (breast) = assay: as above; format: cell-based
Experimental: as §1, §2

BXPC-3 (pancreas) = assay: as above; format: cell-based
Experimental: as §1, §2

DU-145 (prostate) = assay: as above; format: cell-based
Experimental: as §1, §2

[1] = system: NCI 60 Cancer cell screen; conditions: cited from earlier work
[2] = NCI-H460, 48 h, sulforhodamine B

In the case of `CC[C@H]1CN2CCc3cc(OC)c(OC)cc3C2C[C@@H]1C[C@@H]1c2cc(OC)c(OC)cc2CCN1C(=O)CCNC(=O)[C@H](C)[C@@H](OC)C1CCCN1C(=O)C[C@@H](OC)C([C@@H](C)CC)N(C)C(=O)[C@@H](NC(=O)[C@H](C(C)C)N(C)C)C(C)C` (stereo partly drawn) [Compound 9, Dov-Val-Dil-Dap-β-Ala-Emetine], the GI50 (SF-268 (CNS); Homo sapiens, SF-268) is reported as 186 nM, the GI50 (SF-268 (CNS); Homo sapiens, SF-268, 48 h) is reported as 0.21 µg/mL and the “decrease in biological activity compared to both emetine and Compound 5” value (Human Cancer Cell Lines) is reported as 10 fold. The GI50 (NCI-H460 (lung); Homo sapiens, NCI-H460) was 2830 nM, the GI50 (NCI-H460 (lung); Homo sapiens, NCI-H460, 48 h) was 3.2 µg/mL and the GI50 (KM20L2 (colon); Homo sapiens, KM-20L2) was 194 nM. It also gave a GI50 (KM20L2 (colon); Homo sapiens, KM-20L2, 48 h) of 0.22 µg/mL, a GI50 (MCF-7 (breast); Homo sapiens, MCF7) of 159 nM and a GI50 (MCF-7 (breast); Homo sapiens, MCF7, 48 h) of 0.18 µg/mL. It also gave a GI50 (BXPC-3 (pancreas); Homo sapiens, BXPC-3) of 3800 nM, a GI50 (BXPC-3 (pancreas); Homo sapiens, BXPC-3, 48 h) of 4.3 µg/mL and a GI50 (DU-145 (prostate); Homo sapiens, DU-145) of 97.2 nM. The GI50 (DU-145 (prostate); Homo sapiens, DU-145, 48 h) was 0.11 µg/mL.
In the case of `CC[C@H]1CN2CCc3cc(OC)c(OC)cc3[C@@H]2C[C@@H]1C[C@H]1NCCc2cc(OC)c(OC)cc21` [Emetine], the G150 [1] is listed as 27 nM.
For `CCC1CN2CCc3cc(OC)c(OC)cc3C2CC1CC1c2cc(OC)c(OC)cc2CCN1C(=O)CCNC(=O)C(C)C(OC)C1CCCN1C(=O)OC(C)(C)C` (stereo not shown) [Compound 8, 2′-N-(boc-dap-[…]-ala)-emetine], the GI50 (SF-268 (CNS); SF-268, 48 h, sulforhodamine B) was greater than 10 µg/mL, the “biological activity (cancer cell growth inhibition)” value (Human Cancer Cell Lines) was “inactive” and the GI50 (NCI-H460 (lung); [2]) was greater than 10 µg/mL. For the same molecule, the GI50 (KM20L2 (colon); KM20L2, 48 h, sulforhodamine B) was greater than 10 µg/mL, the GI50 (MCF-7 (breast); MCF-7, 48 h, sulforhodamine B) was greater than 10 µg/mL and the GI50 (BXPC-3 (pancreas); BXPC-3, 48 h, sulforhodamine B) was greater than 10 µg/mL. It also gave a GI50 (DU-145 (prostate); DU-145, 48 h, sulforhodamine B) of 10.0 µg/mL.
With `CC[C@H]1CN2CCc3cc(OC)c(OC)cc3C2C[C@@H]1C[C@@H]1c2cc(OC)c(OC)cc2CCN1CCNC(=O)[C@H](C)[C@@H](OC)C1CCCN1C(=O)C[C@@H](OC)C([C@@H](C)CC)N(C)C(=O)[C@@H](NC(=O)[C@H](C(C)C)N(C)C)C(C)C` (stereo partly drawn) [Compound 10, 2′-N-(ethylamine-N-Dap-Dil-Val-Dov)-Emetine] the GI50 (SF-268 (CNS); Homo sapiens, SF-268) was 272 nM, the GI50 (SF-268 (CNS); Homo sapiens, SF-268, 48 h) was 0.3 µg/mL and the “decrease in biological activity compared to both emetine and Compound 5” value (Human Cancer Cell Lines) was 10 fold. For the same molecule, the GI50 (NCI-H460 (lung); Homo sapiens, NCI-H460) was 4530 nM, the GI50 (NCI-H460 (lung); Homo sapiens, NCI-H460, 48 h) was 5 µg/mL and the GI50 (KM20L2 (colon); Homo sapiens, KM-20L2) was 362 nM. For the same molecule, the GI50 (KM20L2 (colon); Homo sapiens, KM-20L2, 48 h) was 0.4 µg/mL, the GI50 (MCF-7 (breast); Homo sapiens, MCF7) was 118 nM and the GI50 (MCF-7 (breast); Homo sapiens, MCF7, 48 h) was 0.13 µg/mL. For the same molecule, the GI50 (BXPC-3 (pancreas); Homo sapiens, BXPC-3) was 1900 nM, the GI50 (BXPC-3 (pancreas); Homo sapiens, BXPC-3, 48 h) was 2.1 µg/mL and the GI50 (DU-145 (prostate); Homo sapiens, DU-145) was 181 nM. It also gave a GI50 (DU-145 (prostate); Homo sapiens, DU-145, 48 h) of 0.2 µg/mL.
In the case of `CC[C@H]1CN2CCc3cc(OC)c(OC)cc3C2C[C@@H]1C[C@@H]1c2cc(OC)c(OC)cc2CCN1C(=O)CCN` (stereo partly drawn) [Compound 7, 2′-N-(β-alanine)-emetine TFA salt], the GI50 (SF-268 (CNS); Homo sapiens, SF-268, 48 h) is reported as greater than 10 µg/mL, the “biological activity (cancer cell growth inhibition)” value (Human Cancer Cell Lines) is reported as “inactive” and the GI50 (NCI-H460 (lung); Homo sapiens, NCI-H460, 48 h) is reported as greater than 10 µg/mL. The GI50 (KM20L2 (colon); Homo sapiens, KM-20L2, 48 h) was greater than 10 µg/mL, the GI50 (MCF-7 (breast); Homo sapiens, MCF7, 48 h) was greater than 10 µg/mL and the GI50 (BXPC-3 (pancreas); Homo sapiens, BXPC-3, 48 h) was 10.3 µg/mL. The GI50 (DU-145 (prostate); Homo sapiens, DU-145, 48 h) was 10.1 µg/mL.
In the case of `CC[C@H]1CN2CCc3cc(OC)c(OC)cc3[C@@H]2C[C@@H]1C[C@H]1NCCc2cc(OC)c(OC)cc21` [Compound 1, emetine dihydrochloride, reference compound], the GI50 (NCI-H460 (lung); Homo sapiens, NCI-H460, 48 h, sulforhodamine B, read-out: GI50) is reported as 0.022 µg/mL, the GI50 (NCI-H460 (lung); Homo sapiens, NCI-H460, value in brackets, read-out: GI50) is reported as 39.7 nM and the GI50 (KM20L2 (colon); Homo sapiens, KM-20L2, KM20L2, 48 h, sulforhodamine B, read-out: GI50) is reported as 0.026 µg/mL. For the same molecule, the GI50 (KM20L2 (colon); Homo sapiens, KM-20L2, KM20L2, value in brackets, read-out: GI50) was 47 nM, the GI50 (MCF-7 (breast); Homo sapiens, MCF7, MCF-7, 48 h, sulforhodamine B, read-out: GI50) was 0.03 µg/mL and the GI50 (MCF-7 (breast); Homo sapiens, MCF7, MCF-7, value in brackets, read-out: GI50) was 54.2 nM. The GI50 (BXPC-3 (pancreas); Homo sapiens, BXPC-3, 48 h, sulforhodamine B, read-out: GI50) was 0.031 µg/mL, the GI50 (BXPC-3 (pancreas); Homo sapiens, BXPC-3, value in brackets, read-out: GI50) was 56 nM and the GI50 (DU-145 (prostate); Homo sapiens, DU-145, 48 h, sulforhodamine B, read-out: GI50) was 0.02 µg/mL. It also gave a GI50 (DU-145 (prostate); Homo sapiens, DU-145, value in brackets, read-out: GI50) of 36.1 nM.
With `CCC1CN2CCc3cc(OC)c(OC)cc3C2CC1CC1c2cc(OC)c(OC)cc2CCN1C(=O)CCNC(=O)OC(C)(C)C` (stereo not drawn) [Compound 6, 2′-(N-carboxy-β-alanyl)-tert-butyl emetine ester] the GI50 (SF-268 (CNS); SF-268, 48 h, sulforhodamine B) was greater than 10 µg/mL, the “biological activity (cancer cell growth inhibition)” value (Human Cancer Cell Lines) was “inactive” and the GI50 (NCI-H460 (lung); [2]) was greater than 10 µg/mL. The GI50 (KM20L2 (colon); KM20L2, 48 h, sulforhodamine B) was greater than 10 µg/mL, the GI50 (MCF-7 (breast); MCF-7, 48 h, sulforhodamine B) was 10 µg/mL and the GI50 (BXPC-3 (pancreas); BXPC-3, 48 h, sulforhodamine B) was greater than 10 µg/mL. The GI50 (DU-145 (prostate); DU-145, 48 h, sulforhodamine B) was greater than 10 µg/mL.
For `CC[C@H]1CN2CCc3cc(OC)c(OC)cc3C2C[C@@H]1C[C@@H]1c2cc(OC)c(OC)cc2CCN1C(=O)[C@H](C)[C@@H](OC)C1CCCN1C(=O)C[C@@H](OC)[C@H]([C@@H](C)CC)N(C)C(=O)[C@@H](NC(=O)[C@H](C(C)C)N(C)C)C(C)C` (stereo in doubt) [Compound 5, 2N′-(Dov-Val-Dil-Dap)-Emetine], the GI50 (SF-268 (CNS); Homo sapiens, SF-268) was 30.2 nM, the GI50 (SF-268 (CNS); Homo sapiens, SF-268, 48 h) was 0.032 µg/mL and the “cytotoxicity relative to emetine” value (Human Cancer Cell Lines; in four of the six cell lines) was “comparable to that of emetine”. It also gave a GI50 (NCI-H460 (lung); Homo sapiens, NCI-H460) of 198 nM, a GI50 (NCI-H460 (lung); Homo sapiens, NCI-H460, 48 h) of 0.21 µg/mL and a GI50 (KM20L2 (colon); Homo sapiens, KM-20L2) of 35.8 nM. For the same molecule, the GI50 (KM20L2 (colon); Homo sapiens, KM-20L2, 48 h) was 0.038 µg/mL, the GI50 (MCF-7 (breast); Homo sapiens, MCF7) was 35.8 nM and the GI50 (MCF-7 (breast); Homo sapiens, MCF7, 48 h) was 0.038 µg/mL. The “decrease in activity compared to emetine” value (BXPC-3 (pancreas); BXPC-3 cell line) was 10 fold, the GI50 (BXPC-3 (pancreas); Homo sapiens, BXPC-3) was 386 nM and the GI50 (BXPC-3 (pancreas); Homo sapiens, BXPC-3, 48 h) was 0.41 µg/mL. For the same molecule, the GI50 (DU-145 (prostate); Homo sapiens, DU-145) was 12.3 nM and the GI50 (DU-145 (prostate); Homo sapiens, DU-145, 48 h) was 0.013 µg/mL.
With `CCC1CN2CCc3cc(OC)c(OC)cc3C2CC1CC1c2cc(OC)c(OC)cc2CCN1C(=O)C(C)C(OC)C1CCCN1.O=C(O)C(F)(F)F` (stereo not shown) [Compound 3, 2′-N-(Dap)-emetine TFA salt] the GI50 (SF-268 (CNS); SF-268, 48 h, sulforhodamine B) was 3.2 µg/mL, the GI50 (SF-268 (CNS); SF-268, value in brackets, read-out: GI50) was 3650 nM and the “decrease in activity compared to emetine” value (Human Cancer Cell Lines; in all six cell lines) was 100 fold. It also gave a GI50 (NCI-H460 (lung); [2]) of 5.0 µg/mL, a GI50 (NCI-H460 (lung); NCI-H460, value in brackets, read-out: GI50) of 5700 nM and a GI50 (KM20L2 (colon); KM20L2, 48 h, sulforhodamine B) of 3.0 µg/mL. For the same molecule, the GI50 (KM20L2 (colon); KM20L2, value in brackets, read-out: GI50) was 3420 nM, the GI50 (MCF-7 (breast); MCF-7, 48 h, sulforhodamine B) was 1.4 µg/mL and the GI50 (MCF-7 (breast); MCF-7, value in brackets, read-out: GI50) was 1600 nM. It also gave a GI50 (BXPC-3 (pancreas); BXPC-3, 48 h, sulforhodamine B) of 2.1 µg/mL, a GI50 (BXPC-3 (pancreas); BXPC-3, value in brackets, read-out: GI50) of 2390 nM and a GI50 (DU-145 (prostate); DU-145, 48 h, sulforhodamine B) of 3.0 µg/mL. For the same molecule, the GI50 (DU-145 (prostate); DU-145, value in brackets, read-out: GI50) was 3420 nM.
